What follows are compounds tested against T1, HMG-CoA reductase (Homo sapiens, UniProt P04035) (assay: HMG-CoA reductase (HMGCR) degradation in HepG2 cells by western blotting). Settings: treated for 18 hours, ratio of HMG-CoA reductase to GAPDH, read-out: DC50.
T1 construct: endogenous in cells; host or cells: HepG2 (Korea Cell Line Bank)
T1 sequence (P04035 1-888): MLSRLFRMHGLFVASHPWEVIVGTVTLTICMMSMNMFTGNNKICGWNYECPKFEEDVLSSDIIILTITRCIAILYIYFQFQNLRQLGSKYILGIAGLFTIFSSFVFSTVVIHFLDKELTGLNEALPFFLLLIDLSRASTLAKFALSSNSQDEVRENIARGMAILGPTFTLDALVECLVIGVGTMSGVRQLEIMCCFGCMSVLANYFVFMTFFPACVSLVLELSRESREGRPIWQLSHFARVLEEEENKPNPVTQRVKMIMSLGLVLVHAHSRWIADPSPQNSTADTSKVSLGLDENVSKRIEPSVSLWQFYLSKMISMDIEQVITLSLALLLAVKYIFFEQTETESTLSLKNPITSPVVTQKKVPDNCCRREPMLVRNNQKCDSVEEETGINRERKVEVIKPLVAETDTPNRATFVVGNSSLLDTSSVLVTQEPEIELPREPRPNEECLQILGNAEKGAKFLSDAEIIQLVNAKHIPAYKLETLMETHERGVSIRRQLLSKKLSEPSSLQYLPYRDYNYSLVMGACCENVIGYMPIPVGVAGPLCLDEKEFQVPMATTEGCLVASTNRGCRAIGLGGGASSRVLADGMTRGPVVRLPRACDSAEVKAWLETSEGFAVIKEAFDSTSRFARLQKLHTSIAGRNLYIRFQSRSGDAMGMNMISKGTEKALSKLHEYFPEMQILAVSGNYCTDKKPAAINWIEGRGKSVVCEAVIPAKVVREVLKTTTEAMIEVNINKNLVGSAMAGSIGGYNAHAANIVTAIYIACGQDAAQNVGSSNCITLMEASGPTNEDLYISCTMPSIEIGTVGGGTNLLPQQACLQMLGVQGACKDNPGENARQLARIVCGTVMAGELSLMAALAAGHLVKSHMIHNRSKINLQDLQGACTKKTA
Type: cell-based
Method in brief: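 HepG2 cells (passage P105–P110) treated 18 hours with compounds in 10-point three-fold dilutions from 3 μM. RIPA lysates (15 μg protein, BCA-quantified) run on SDS-PAGE and immunoblotted for HMGCR (1:500) with GAPDH (1:20000) as loading control, primary antibodies 16 hours at 4° C.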

| SMILES | DC50 [nM] |
| --- | --- |
| C[C@H]1C=C2C=C[C@H](C)[C@H](CC[C@@H]3C[C@@H](O[Si](C)(C)C(C)(C)C)CC(=O)O3)[C@H]2[C@@H](OC(=O)NCCCCCCNc2cccc3c2C(=O)N(C2CCC(=O)NC2=O)C3=O)C1 (stereo partly drawn) [Compound 52, (1S,3R,7S,8S,8aR)-8-(2-((2R,4R)-4-((tert-butyldimethylsilyl)oxy)-6-oxotetrahydro-2H-pyran-2-yl)ethyl)-3,7-dimethyl-1,2,3,7,8,8a-hexahydronaphthalen-1-yl (6-((2-(2,6-dioxopiperidin-3-yl)-1,3-dioxoisoindolin-4-yl)amino)hexyl)carbamate] | < 50 |
| C[C@H]1C=C2C=C[C@H](C)[C@H](CC[C@@H]3C[C@@H](O[Si](C)(C)C(C)(C)C)CC(=O)O3)[C@H]2[C@@H](OC(=O)NCCC2CCN(C(=O)COc3cccc4c3C(=O)N(C3CCC(=O)NC3=O)C4=O)CC2)C1 (stereo partly drawn) [Compound 80, (1S,3R,7S,8S,8aR)-8-(2-((2R,4R)-4-((tert-butyldimethylsilyl)oxy)-6-oxotetrahydro-2H-pyran-2-yl)ethyl)-3,7-dimethyl-1,2,3,7,8,8a-hexahydronaphthalen-1-yl (2-(1-(2-((2-(2,6-dioxopiperidin-3-yl)-1,3-dioxoisoindolin-4-yl)oxy)acetyl)piperidin-4-yl)ethyl)carbamate] | < 50 |
| C[C@H]1C=C2C=C[C@H](C)[C@H](CC[C@@H]3C[C@@H](O)CC(=O)O3)[C@H]2[C@@H](OC(=O)NCCCn2cnc(CNc3cccc4c3C(=O)N(C3CCC(=O)NC3=O)C4=O)c2)C1 (stereo partly drawn) [Compound 103, (1S,3R,7S,8S,8aR)-8-(2-((2R,4R)-4-hydroxy-6-oxotetrahydro-2H-pyran-2-yl)ethyl)-3,7-dimethyl-1,2,3,7,8,8a-hexahydronaphthalen-1-yl (3-(4-(((2-(2,6-dioxopiperidin-3-yl)-1,3-dioxoisoindolin-4-yl)amino)methyl)-1H-imidazol-1-yl)propyl)carbamate] | < 50 |
| C[C@H]1C=C2C=C[C@H](C)[C@H](CC[C@@H]3C[C@@H](O[Si](C)(C)C(C)(C)C)CC(=O)O3)[C@H]2[C@@H](OC(=O)NCCOCCOCCNc2cccc3nnn(C4CCC(=O)NC4=O)c(=O)c23)C1 (stereo partly drawn) [Compound 155, (1S,3R,7S,8S,8aR)-8-(2-((2R,4R)-4-((tert-butyldimethylsilyl)oxy)-6-oxotetrahydro-2H-pyran-2-yl)ethyl)-3,7-dimethyl-1,2,3,7,8,8a-hexahydronaphthalen-1-yl (2-(2-(2-((3-(2,6-dioxopiperidin-3-yl)-4-oxo-3,4-dihydrobenzo[d][1,2,3]triazin-5-yl)amino)ethoxy)ethoxy)ethyl)carbamate] | < 50 |
| C[C@H]1C=C2C=C[C@H](C)[C@H](CC[C@@H]3C[C@@H](O)CC(=O)O3)[C@H]2[C@@H](OC(=O)NCCCCOCCCCNc2cccc3c2C(=O)N(C2CCC(=O)NC2=O)C3=O)C1 (stereo partly drawn) [Compound 89, (1S,3R,7S,8S,8aR)-8-(2-((2R,4R)-4-hydroxy-6-oxotetrahydro-2H-pyran-2-yl)ethyl)-3,7-dimethyl-1,2,3,7,8,8a-hexahydronaphthalen-1-yl (4-(4-((2-(2,6-dioxopiperidin-3-yl)-1,3-dioxoisoindolin-4-yl)amino)butoxy)butyl)carbamate] | < 50 |
| C[C@H]1C=C2C=C[C@H](C)[C@H](CC[C@@H]3C[C@@H](O[Si](C)(C)C(C)(C)C)CC(=O)O3)[C@H]2[C@@H](OC(=O)NCCOCCOCCNc2cccc3c2C(=O)N(C2CCC(=O)NC2=O)C3=O)C1 (stereo partly drawn) [Compound 46, (1S,3R,7S,8S,8aR)-8-(2-((2R,4R)-4-((tert-butyldimethylsilyl)oxy)-6-oxotetrahydro-2H-pyran-2-yl)ethyl)-3,7-dimethyl-1,2,3,7,8,8a-hexahydronaphthalen-1-yl (2-(2-(2-((2-(2,6-dioxopiperidin-3-yl)-1,3-dioxoisoindolin-4-yl)amino)ethoxy)ethoxy)ethyl)carbamate] | < 50 |
| C[C@H]1C=C2C=C[C@H](C)[C@H](CC[C@@H]3C[C@@H](O[Si](C)(C)C(C)(C)C)CC(=O)O3)[C@H]2[C@@H](OC(=O)NCCOCCCOCCNc2cccc3c2C(=O)N(C2CCC(=O)NC2=O)C3=O)C1 (stereo partly drawn) [Compound 90, (1S,3R,7S,8S,8aR)-8-(2-((2R,4R)-4-((tert-butyldimethylsilyl)oxy)-6-oxotetrahydro-2H-pyran-2-yl)ethyl)-3,7-dimethyl-1,2,3,7,8,8a-hexahydronaphthalen-1-yl (2-(3-(2-((2-(2,6-dioxopiperidin-3-yl)-1,3-dioxoisoindolin-4-yl)amino)ethoxy)propoxy)ethyl)carbamate] | < 50 |
| Cc1ncsc1-c1ccc(CNC(=O)[C@@H]2C[C@@H](O)CN2C(=O)[C@@H](NC(=O)COCCOCCOCCOCCNC(=O)O[C@H]2C[C@@H](C)C=C3C=C[C@H](C)[C@H](CC[C@@H]4C[C@@H](O)CC(=O)O4)[C@H]32)C(C)(C)C)cc1 [Compound 17, (1S,3R,7S,8S,8aR)-8-(2-((2R,4R)-4-hydroxy-6-oxotetrahydro-2H-pyran-2-yl)ethyl)-3,7-dimethyl-1,2,3,7,8,8a-hexahydronaphthalen-1-yl ((S)-16-((2S,4R)-4-hydroxy-2-((4-(4-methylthiazol-5-yl)benzyl)carbamoyl)pyrrolidine-1-carbonyl)-17,17-dimethyl-14-oxo-3,6,9,12-tetraoxa-15-azaoctadecyl)carbamate] | < 50 |
| C[C@H]1C=C2C=C[C@H](C)[C@H](CC[C@@H]3C[C@@H](O[Si](C)(C)C(C)(C)C)CC(=O)O3)[C@H]2[C@@H](OC(=O)NCCCCCNC(=O)COc2cccc3c2C(=O)N(C2CCC(=O)NC2=O)C3=O)C1 (stereo partly drawn) [Compound 74, (1S,3R,7S,8S,8aR)-8-(2-((2R,4R)-4-((tert-butyldimethylsilyl)oxy)-6-oxotetrahydro-2H-pyran-2-yl)ethyl)-3,7-dimethyl-1,2,3,7,8,8a-hexahydronaphthalen-1-yl (5-(2-((2-(2,6-dioxopiperidin-3-yl)-1,3-dioxoisoindolin-4-yl)oxy)acetamido)pentyl)carbamate] | < 50 |
| C[C@H]1C=C2C=C[C@H](C)[C@H](CC[C@@H](O)C[C@@H](O)CC(=O)O)[C@H]2[C@@H](OC(=O)NCCOCCOCCNc2cccc3c2C(=O)N(C2CCC(=O)NC2=O)C3=O)C1 (stereo partly drawn) [Compound 106, (3R,5R)-7-((1S,2S,6R,8S,8aR)-8-(((2-(2-(2-((2-(2,6-dioxopiperidin-3-yl)-1,3-dioxoisoindolin-4-yl)amino)ethoxy)ethoxy)ethyl)carbamoyl)oxy)-2,6-dimethyl-1,2,6,7,8,8a-hexahydronaphthalen-1-yl)-3,5-dihydroxyheptanoic acid] | < 50 |
| C[C@H]1C=C2C=C[C@H](C)[C@H](CC[C@@H]3C[C@@H](O)CC(=O)O3)[C@H]2[C@@H](OC(=O)NCCOCCOCCOCCOCCNc2cccc3c2C(=O)N(C2CCC(=O)NC2=O)C3=O)C1 (stereo partly drawn) [Compound 42, (1S,3R,7S,8S,8aR)-8-(2-((2R,4R)-4-hydroxy-6-oxotetrahydro-2H-pyran-2-yl)ethyl)-3,7-dimethyl-1,2,3,7,8,8a-hexahydronaphthalen-1-yl (14-((2-(2,6-dioxopiperidin-3-yl)-1,3-dioxoisoindolin-4-yl)amino)-3,6,9,12-tetraoxatetradecyl)carbamate] | < 50 |
| C[C@H]1C=C2C=C[C@H](C)[C@H](CC[C@@H]3C[C@@H](O)CC(=O)O3)[C@H]2[C@@H](OC(=O)NCCOCC(=O)NCC(=O)Nc2cccc3c2C(=O)N(C2CCC(=O)NC2=O)C3=O)C1 (stereo partly drawn) [Compound 145, (1S,3R,7S,8S,8aR)-8-(2-((2R,4R)-4-hydroxy-6-oxotetrahydro-2H-pyran-2-yl)ethyl)-3,7-dimethyl-1,2,3,7,8,8a-hexahydronaphthalen-1-yl (2-(2-((2-((2-(2,6-dioxopiperidin-3-yl)-1,3-dioxoisoindolin-4-yl)amino)-2-oxoethyl)amino)-2-oxoethoxy)ethyl)carbamate] | < 50 |
| Cc1ncsc1-c1ccc(CNC(=O)[C@@H]2C[C@@H](O)CN2C(=O)[C@@H](NC(=O)COCCNC(=O)O[C@H]2C[C@@H](C)C=C3C=C[C@H](C)[C@H](CC[C@@H]4C[C@@H](O)CC(=O)O4)[C@H]32)C(C)(C)C)cc1 [Compound 14, (1S,3R,7S,8S,8aR)-8-(2-((2R,4R)-4-hydroxy-6-oxotetrahydro-2H-pyran-2-yl)ethyl)-3,7-dimethyl-1,2,3,7,8,8a-hexahydronaphthalen-1-yl (2-(2-(((S)-1-((2S,4R)-4-hydroxy-2-((4-(4-methylthiazol-5-yl)benzyl)carbamoyl)pyrrolidin-1-yl)-3,3-dimethyl-1-oxobutan-2-yl)amino)-2-oxoethoxy)ethyl)carbamate] | 50 to 500 |
